Experiments:
Type in all cases: physicochemical
[1] = Density of max-load solutions at ambient temperature
[2] = Storage in closed containers at ambient conditions for several months, visual phase check; conditions: 20-25 C, atmospheric pressure
Excerpt: Behaviors inconsistent with a single phase liquid include liquid/liquid separation of layers, or liquid/solid striation, in each case noticeable as such to the unaided eye. […] The single phase liquid need not necessarily be a true solution in the physical sense but will appear to be a single phase to the unaided eye as described above.
The amine-herbicide formulations prepared in Examples 1, 2, 3, and 4 were stored in closed containers at ambient conditions (room temperature varying from 20-25 C, atmospheric pressure) for several months.

[3] = 2 mL samples spotted onto glass plates, left uncovered at ambient conditions for approximately two months; conditions: 2 mL on glass plate, 20°-25° C.
Procedure: To evaluate the herbicidal compositions under more stringent conditions, we increased their surface area and exposed them to ambient conditions at room temperature, atmospheric pressure, and uncovered over an extended period of time: 2 mL samples of the five liquefied combinations were spotted onto glass plates and left uncovered at ambient conditions (temperatures within a range of 20°-25° C.) for approximately two months.

[4] = Maximum loading of herbicide amine salt in water (HCl titration of amine, Karl-Fischer water); conditions: glufosinate amine salts in water
Excerpt: F is a factor that takes into account the amount of base or acid groups on the amine or acid, respectively.

SMILES	density of max-load solution [1] [g/mL]	physical state after storage (visual presence of salt solids) [2]	physical state after open exposure on glass plate [3]	Max Load amine [4] [g/L]	Max Load g ae/L [4] [g ae/L]
CN(C)Cc1ccccc1.O=C(O)COc1ccc(Cl)cc1Cl [BDMA/2,4-D]	1.25	formed single phase liquids	turned into a crystallized mass	–	–
COc1c(Cl)ccc(Cl)c1C(=O)O [MMEA/dicamba]	1.31	formed single phase liquids	remained liquefied	–	–
CP(=O)(O)CCC(N)C(=O)O.N (centres unmarked) [NH3/glufosinate]	–	–	–	1340	1339
CCCCN(CCCC)CCCC.O=C(O)COc1ccc(Cl)cc1Cl [TNBA/2,4-D]	1.1	formed single phase liquids	turned into a crystallized mass	–	–

Reference: US11109591B2, “Single phase liquids of alkanolamine salts of dicamba” (Taminco BVBA, priority 2017, dated 2021)
